How the values were obtained:
[1] = test system: 4T1 breast cancer subcutaneous tumor; experiment: Tumor-volume inhibition after PDT, 4T1 breast cancer subcutaneous tumor model; type: in vivo, mouse; conditions: 50 mg/kg CCPCA NPs, 3.4 mg/kg 5-ALA, 635 nm laser 10 min at 12, 24, 36 h, 14 days
From the text: A specific characterization method is as follows: 20 4T1 model tumor mice with a tumor size of 100 mm^3 are equally divided into 4 experimental groups, namely the MN (+) group with blank microneedle and irradiated with laser, the 5-ALA i.v (+) group with tail intravenous injected with 5-ALA and irradiated with laser, the MN-5-ALA (+) group with 5-ALA microneedle delivery and irradiated with laser, the MN-CCPCA (+) group with transdermal microneedle loaded with 5-ALA and CAT using nanoparticles and irradiated with lase. The mice in the laser treatment group are irradiated with a laser with a wavelength of 635 nm for 10 minutes (200 mW/cm^2) at 12, 24, and 36 h, respectively. The doses administered are 50 mg/kg of CCPCA NPs and 3.4 mg/kg of 5-ALA. The volume of mouse tumor in each group on different days (0, 2, 4, 6, 8, 10, 12, 14) is measured by a vernier caliper.

[2] = test system: subcutaneous U87MG glioblastoma; experiment: Tumor-volume inhibition after 3 repeated PDT, subcutaneous U87MG glioblastoma model; type: in vivo, mouse; conditions: 50 mg/kg CCPCA NPs, 3.4 mg/kg 5-ALA, 635 nm laser 10 min at 6, 12, 24 h, 14 days
Method: A specific characterization method is as follows: 20 U87MG model tumor mice with a tumor size of 100 mm^3 are equally divided into 4 experimental groups, namely the MN (+) group with blank microneedle and irradiated with laser, the 5-ALA i.v (+) group with tail intravenous injected with 5-ALA and irradiated with laser, the MN-5-ALA (+) group with 5-ALA microneedle delivery and irradiated with laser, the MN-CCPCA (+) group with transdermal microneedle loaded with 5-ALA and CAT using nanoparticles and irradiated with lase. The doses administered are 50 mg/kg of CCPCA NPs and 3.4 mg/kg of 5-ALA. The mice in the laser treatment group are irradiated with a laser with a wavelength of 635 nm for 10 minutes (200 mW/cm^2) at 6, 12, and 24 h, respectively. The volume of mouse tumor in each group on different days (0, 2, 4, 6, 8, 10, 12, 14) is measured by a vernier caliper.

A375 tumor cell = experiment: Dynamic PpIX fluorescence in A375 tumor cell by high-content fluorescence microscopy; type: cell-based; conditions: equal amount of 5-ALA, time after hatching (incubation)
From the text: The dynamic fluorescence value of PpIX generated by an in-vivo cell is monitored in real time by high-content fluorescence microscopy.

A375 melanoma cells = experiment: PpIX accumulation (mass) generated in A375 tumor cell by different nanoparticles; type: cell-based; conditions: same concentration of 5-ALA (10.8 μg mL^−1)
From the text: The biological effects of MN-CCPCA in accumulating PpIX in a cell and an in-vivo tumor are studied.

[3] = background statement; cited from earlier work

SMILES	tumor growth inhibition rate [1]	tumor growth inhibition rate [2]	time at which PpIX concentration/intensity in the cell reaches the maximum (A375 tumor cell)	intracellular PpIX content (A375 melanoma cells)	time of rapid clearance of PpIX in vivo [3]	time to highest peak of PpIX synthesis in vivo [3]
NCC(=O)CCC(=O)O [5-ALA, 5-aminolevulinic acid]	27.5%	19.1%	6 h	35.1±3.3 ng/10^6 cells	–	–
C=CC1=C(C)c2cc3[nH]c(cc4nc(cc5[nH]c(cc1n2)c(C)c5CCC(=O)O)C(CCC(=O)O)=C4C)c(C)c3C=C [PpIX, Protoporphyrin IX]	–	–	–	–	≤ 12 h	about 4 hours
